Laboratory results published in PubChem BioAssay AID2060890 (Molecular Pharmacology Branch, DTP, NCI, 2025).

System: LG0703-F948-PDC complex spheroid viability
Assay: Anticancer human tumor LG0703-F948-PDC patient-derived lung adenocarcinoma cell line growth inhibition [RAS]
Settings: for IC50: curve of first compound; for viability, T/C: stronger effect = lower value
Summary of the method: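 Tumour cells grown as complex spheroids with HUVEC endothelial cells and mesenchymal stem cells, treated with RAS pathway inhibitor combinations. Each agent spans half-log steps from near clinical Cmax, or 10 microM where Cmax is unknown.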

[1] = second compound 0.0316 µM, first compound 0.000949 µM
[2] = second compound 0.0316 µM, first compound 0.003 µM
[3] = second compound 0.0316 µM, first compound 0.00949 µM
[4] = second compound 0.0316 µM, first compound 0.03 µM
[5] = second compound 0.0316 µM, first compound 0.0949 µM
[6] = second compound 0.0316 µM, first compound 0.3 µM
[7] = second compound 0.1 µM, first compound 0.000949 µM
[8] = second compound 0.1 µM, first compound 0.003 µM
[9] = second compound 0.1 µM, first compound 0.00949 µM
[10] = second compound 0.1 µM, first compound 0.03 µM
[11] = second compound 0.1 µM, first compound 0.0949 µM
[12] = second compound 0.1 µM, first compound 0.3 µM
[13] = second compound 0.316 µM, first compound 0.000949 µM
[14] = second compound 0.316 µM, first compound 0.003 µM
[15] = second compound 0.316 µM, first compound 0.00949 µM
[16] = second compound 0.316 µM, first compound 0.03 µM
[17] = second compound 0.316 µM, first compound 0.0949 µM
[18] = second compound 0.316 µM, first compound 0.3 µM
[19] = second compound 1 µM, first compound 0.000949 µM
[20] = second compound 1 µM, first compound 0.003 µM
[21] = second compound 1 µM, first compound 0.00949 µM
[22] = second compound 1 µM, first compound 0.03 µM
[23] = second compound 1 µM, first compound 0.0949 µM
[24] = second compound 1 µM, first compound 0.3 µM
[25] = second compound 3.16 µM, first compound 0.000949 µM
[26] = second compound 3.16 µM, first compound 0.003 µM
[27] = second compound 3.16 µM, first compound 0.00949 µM
[28] = second compound 3.16 µM, first compound 0.03 µM
[29] = second compound 3.16 µM, first compound 0.0949 µM
[30] = second compound 3.16 µM, first compound 0.3 µM
[31] = second compound 10 µM, first compound 0.000949 µM
[32] = second compound 10 µM, first compound 0.003 µM
[33] = second compound 10 µM, first compound 0.00949 µM
[34] = second compound 10 µM, first compound 0.03 µM
[35] = second compound 10 µM, first compound 0.0949 µM
[36] = second compound 10 µM, first compound 0.3 µM
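Further: spheroids exposed to agents for 7 days.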
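Wherever viability, T/C is given: 100% = DMSO vehicle wells.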

## Nc1ccn(C2OC(CO)C(O)C2(F)F)c(=O)n1 (stereo unspecified) + C#Cc1c(F)ccc2cc(O)cc(-c3ncc4c(N5CC6CCC(C5)N6)nc(OCC56CCCN5CC(F)C6)nc4c3F)c12
Second compound 0.0316 µM
  IC50: 6.33 nM
Second compound 0.1 µM
  IC50: 8.21 nM
Second compound 0.316 µM
  IC50: 6.43 nM
Second compound 1 µM
  IC50: 5.01 nM
Second compound 3.16 µM
  IC50: 3.85 nM
Second compound 10 µM
  IC50: < 3.16 nM
Second compound 0.0316 µM, first compound 0.00316 µM
  viability, T/C: 68.2%
Second compound 0.0316 µM, first compound 0.01 µM
  viability, T/C: 37.7%
Second compound 0.0316 µM, first compound 0.0316 µM
  viability, T/C: 30.6%
Second compound 0.0316 µM, first compound 0.1 µM
  viability, T/C: 34.1%
Second compound 0.0316 µM, first compound 0.316 µM
  viability, T/C: 25.7%
Second compound 0.0316 µM, first compound 1 µM
  viability, T/C: 28.3%
Second compound 0.1 µM, first compound 0.00316 µM
  viability, T/C: 74.2%
Second compound 0.1 µM, first compound 0.01 µM
  viability, T/C: 45%
Second compound 0.1 µM, first compound 0.0316 µM
  viability, T/C: 26.9%
Second compound 0.1 µM, first compound 0.1 µM
  viability, T/C: 27.4%
Second compound 0.1 µM, first compound 0.316 µM
  viability, T/C: 31.9%
Second compound 0.1 µM, first compound 1 µM
  viability, T/C: 27%
Second compound 0.316 µM, first compound 0.00316 µM
  viability, T/C: 63.7%
Second compound 0.316 µM, first compound 0.01 µM
  viability, T/C: 40.8%
Second compound 0.316 µM, first compound 0.0316 µM
  viability, T/C: 31.6%
Second compound 0.316 µM, first compound 0.1 µM
  viability, T/C: 29%
Second compound 0.316 µM, first compound 0.316 µM
  viability, T/C: 26.6%
Second compound 0.316 µM, first compound 1 µM
  viability, T/C: 23.5%
Second compound 1 µM, first compound 0.00316 µM
  viability, T/C: 59%
Second compound 1 µM, first compound 0.01 µM
  viability, T/C: 35.4%
Second compound 1 µM, first compound 0.0316 µM
  viability, T/C: 32.7%
Second compound 1 µM, first compound 0.1 µM
  viability, T/C: 23.8%
Second compound 1 µM, first compound 0.316 µM
  viability, T/C: 26.4%
Second compound 1 µM, first compound 1 µM
  viability, T/C: 25.6%
Second compound 3.16 µM, first compound 0.00316 µM
  viability, T/C: 53%
Second compound 3.16 µM, first compound 0.01 µM
  viability, T/C: 34.7%
Second compound 3.16 µM, first compound 0.0316 µM
  viability, T/C: 34.2%
Second compound 3.16 µM, first compound 0.1 µM
  viability, T/C: 30.9%
Second compound 3.16 µM, first compound 0.316 µM
  viability, T/C: 32%
Second compound 3.16 µM, first compound 1 µM
  viability, T/C: 26.9%
Second compound 10 µM, first compound 0.00316 µM
  viability, T/C: 41.5%
Second compound 10 µM, first compound 0.01 µM
  viability, T/C: 29%
Second compound 10 µM, first compound 0.0316 µM
  viability, T/C: 32.5%
Second compound 10 µM, first compound 0.1 µM
  viability, T/C: 33.5%
Second compound 10 µM, first compound 0.316 µM
  viability, T/C: 34%
Second compound 10 µM, first compound 1 µM
  viability, T/C: 30.7%

## CCc1c2c(nc3ccc(O)cc13)-c1cc3c(c(=O)n1C2)COC(=O)[C@]3(O)CC + C#Cc1c(F)ccc2cc(O)cc(-c3ncc4c(N5CC6CCC(C5)N6)nc(OCC56CCCN5CC(F)C6)nc4c3F)c12
Second compound 0.0316 µM
  IC50: 38.2 nM
Second compound 0.1 µM
  IC50: 35.9 nM
Second compound 0.316 µM
  IC50: 47.6 nM
Second compound 1 µM
  IC50: 34.9 nM
Second compound 3.16 µM
  IC50: 32.2 nM
Second compound 10 µM
  IC50: < 0.949 nM
[1]
  viability, T/C: 98.4%
[2]
  viability, T/C: 90.5%
[3]
  viability, T/C: 72.3%
[4]
  viability, T/C: 48.3%
[5]
  viability, T/C: 41.7%
[6]
  viability, T/C: 19.7%
[7]
  viability, T/C: 92.4%
[8]
  viability, T/C: 91.1%
[9]
  viability, T/C: 77.6%
[10]
  viability, T/C: 49.8%
[11]
  viability, T/C: 36.4%
[12]
  viability, T/C: 20.1%
[13]
  viability, T/C: 85.3%
[14]
  viability, T/C: 77.7%
[15]
  viability, T/C: 81.5%
[16]
  viability, T/C: 51.7%
[17]
  viability, T/C: 41.4%
[18]
  viability, T/C: 20.2%
[19]
  viability, T/C: 65.5%
[20]
  viability, T/C: 61.7%
[21]
  viability, T/C: 61.7%
[22]
  viability, T/C: 50.9%
[23]
  viability, T/C: 38.4%
[24]
  viability, T/C: 25.3%
[25]
  viability, T/C: 58.5%
[26]
  viability, T/C: 60.3%
[27]
  viability, T/C: 50.3%
[28]
  viability, T/C: 52.7%
[29]
  viability, T/C: 30.4%
[30]
  viability, T/C: 17%
[31]
  viability, T/C: 41%
[32]
  viability, T/C: 49.4%
[33]
  viability, T/C: 46.9%
[34]
  viability, T/C: 33.9%
[35]
  viability, T/C: 30.4%
[36]
  viability, T/C: 15.7%

## CC1(C)CCC(Nc2ncc(C(F)(F)F)c(-c3c[nH]c4c(P(C)(C)=O)c(C#N)ccc34)n2)CN1 (stereo unspecified) + C#Cc1c(F)ccc2cc(O)cc(-c3ncc4c(N5CC6CCC(C5)N6)nc(OCC56CCCN5CC(F)C6)nc4c3F)c12
Second compound 0.0316 µM
  IC50: > 300 nM
Second compound 0.1 µM
  IC50: > 300 nM
Second compound 0.316 µM
  IC50: > 300 nM
Second compound 1 µM
  IC50: > 300 nM
Second compound 3.16 µM
  IC50: > 300 nM
Second compound 10 µM
  IC50: 3.26 nM
[1]
  viability, T/C: 83.1%
[2]
  viability, T/C: 65.2%
[3]
  viability, T/C: 61.7%
[4]
  viability, T/C: 55.8%
[5]
  viability, T/C: 63.3%
[6]
  viability, T/C: 67.2%
[7]
  viability, T/C: 93%
[8]
  viability, T/C: 80.7%
[9]
  viability, T/C: 63.9%
[10]
  viability, T/C: 69.5%
[11]
  viability, T/C: 76.9%
[12]
  viability, T/C: 66.3%
[13]
  viability, T/C: 85.6%
[14]
  viability, T/C: 58.7%
[15]
  viability, T/C: 62.5%
[16]
  viability, T/C: 67.5%
[17]
  viability, T/C: 66%
[18]
  viability, T/C: 71.2%
[19]
  viability, T/C: 62.3%
[20]
  viability, T/C: 76.4%
[21]
  viability, T/C: 62.5%
[22]
  viability, T/C: 59.5%
[23]
  viability, T/C: 68.9%
[24]
  viability, T/C: 66.4%
[25]
  viability, T/C: 65.7%
[26]
  viability, T/C: 57.5%
[27]
  viability, T/C: 45.1%
[28]
  viability, T/C: 53%
[29]
  viability, T/C: 63.9%
[30]
  viability, T/C: 54.4%
[31]
  viability, T/C: 58.3%
[32]
  viability, T/C: 48.9%
[33]
  viability, T/C: 37.6%
[34]
  viability, T/C: 47.7%
[35]
  viability, T/C: 50.3%
[36]
  viability, T/C: 44.4%
